Test results reported in patent US20250243488A1, “METHODS OF MODULATING PROGRANULIN EXPRESSION USING ANTISENSE OLIGONUCLEOTIDES TARGETING REGULATORY RNAS” (Camp4 Therapeutics Corporation, priority 2022, published 2025).
Oligonucleotides are written 5' to 3', each unit as a sugar letter and its base; * is a phosphorothioate linkage, no mark a phosphodiester; rarer units and linkages stand in square brackets, end groups in braces. Plain capitals give the bases only. e = 2'-O-(2-methoxyethyl) (MOE); l = locked nucleic acid (LNA); [5mC] = 5-methylcytosine; d = 2'-deoxy (DNA)

Tested on: GRN mRNA
Assay: GRN mRNA qPCR in SK-N-AS cells transfected with ASOs
Format: cell-based, human
Details: SK-N-AS; for hit identification (GRN mRNA dose escalation): 3.75 nM to 120 nM; for 120 nM FC (GRN mRNA) / hGRN mRNA FC: 120 nM
Summary of the method: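 Human neuroblastoma SK-N-AS cells transfected with ASOs at increasing concentrations (20 to 160 nM in initial titrations); GRN mRNA quantified by qPCR after 48 hours. Normalized to GAPDH and PPIA, fold change relative to steric non-targeting control ASO(s) (sNTC/CO-1589, with CO-3772 and CO-1929 in some series).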

[1] = Table 12, normalized to CO-1589
[2] = Table 9, 48 hours post-transfection, normalized to CO-1589
[3] = Table 10, 48 hours, normalized to CO-1589
[4] = Table 11, 48 hours, normalized to CO-1589
[5] = Table 13, normalized to CO-1589
[6] = Table 5, normalized to CO-3772, CO-1589 and CO-1929
[7] = Table 3, normalized to CO-3772 and CO-1589 (sNTC1)
[8] = Table 7, normalized to CO-1589 (sNTC1)

CO-6392: ASO based on parent ASO CO-3462 (antisense eT*eA*eG*lG*eA*lG*eA*lA*eT*l[5mC]*eG*l[5mC]*eT*lT*eT*lG*eG*lG*eA*eG)
30 nM FC (GRN mRNA) [1]: 1.0 FC
60 nM FC (GRN mRNA) [1]: 0.8 FC
120 nM FC (GRN mRNA) [1]: 1.0 FC

CO-4613: ASO designed to target intergenic enhancers (eRNA) (antisense eA*eT*e[5mC]*eA*eA*eG*eG*eG*eT*eT*eT*eG*eG*e[5mC]*eG*eT*eT*eT*eA*eG)
hit identification (GRN mRNA dose escalation) (48 hours): initial hits
hGRN mRNA FC [2]: 1.6 FC
3.75 nM FC (GRN mRNA) [3]: 1.0 FC
7.5 nM FC (GRN mRNA) [3]: 1.1 FC
15 nM FC (GRN mRNA) [3]: 1.2 FC
30 nM FC (GRN mRNA) [3]: 1.1 FC
60 nM FC (GRN mRNA) [3]: 1.2 FC
120 nM FC (GRN mRNA) [3]: 1.4 FC

CO-6449: ASO designed to target an intragenic enhancer RNA (eRNA) (eG*eT*e[5mC]*e[5mC]*eA*eG*e[5mC]*eT*e[5mC]*eG*eG*eT*e[5mC]*eA*eT*eG*eT*eG*eT*e[5mC])
hGRN mRNA FC [4]: 1.1 FC

CO-6522: ASO based on parent ASO CO-3462 (antisense eT*eA*eG*eG*eA*eG*eA*eA*eT*e[5mC]*eG*e[5mC]eTeTeTeGeGeG*eA*eG)
30 nM FC (GRN mRNA) [1]: 1.1 FC
60 nM FC (GRN mRNA) [1]: 1.0 FC
120 nM FC (GRN mRNA) [1]: 1.1 FC

CO-6414: ASO based on parent ASOs CO-4363 and CO-4364 (antisense eG*eG*eA*l[5mC]*eT*lT*eG*lG*eG*lA*eG*lT*eG*lG*eT*lG*eA*l[5mC]*eT*eG*eA)
30 nM FC (GRN mRNA) [5]: 1.6 FC
60 nM FC (GRN mRNA) [5]: 1.4 FC
120 nM FC (GRN mRNA) [5]: 1.3 FC

CO-6413: ASO based on parent ASOs CO-4363 and CO-4364 (antisense eG*eG*eA*e[5mC]*eT*dT*dG*dG*eG*dA*dG*dT*eG*dG*dT*dG*eA*e[5mC]*eT*eG*eA)
30 nM FC (GRN mRNA) [5]: 1.0 FC
60 nM FC (GRN mRNA) [5]: 0.6 FC
120 nM FC (GRN mRNA) [5]: 0.7 FC

CO-6444: ASO designed to target an intragenic enhancer RNA (eRNA) (eT*eG*e[5mC]*e[5mC]*e[5mC]*eA*eA*eT*eG*e[5mC]*e[5mC]*e[5mC]*eA*eA*e[5mC]*eG*eT*eG*eA*eG)
hGRN mRNA FC [4]: 1.0 FC

CO-4642: ASO designed to target intergenic enhancers (eRNA) (antisense eG*eG*e[5mC]*eT*eG*e[5mC]*eA*eG*eA*eT*e[5mC]*eT*e[5mC]*eT*eA*eT*eA*eT*e[5mC]*eA)
hGRN mRNA FC [2]: 1.0 FC

CO-4604: ASO designed to target intergenic enhancers (eRNA) (antisense eT*e[5mC]*eT*e[5mC]*e[5mC]*eG*eA*eT*e[5mC]*e[5mC]*e[5mC]*eG*e[5mC]*eT*eT*eG*eT*e[5mC]*eA*eG)
hGRN mRNA FC [2]: 1.2 FC

CO-4453: mixed PO/PS bond version of CO-3423 (antisense eG*eG*eAe[5mC]eT*eT*eG*eG*eG*eA*eG*eT*eG*eG*eT*eGeAe[5mC]*eT*eG)
30 nM FC (GRN mRNA) [6]: 1.4 FC
60 nM FC (GRN mRNA) [6]: 1.9 FC
120 nM FC (GRN mRNA) [6]: 1.9 FC

CO-6443: ASO designed to target an intragenic enhancer RNA (eRNA) (eG*e[5mC]*e[5mC]*e[5mC]*eT*eG*eA*e[5mC]*eA*e[5mC]*eG*e[5mC]*eA*e[5mC]*e[5mC]*eT*eT*eA*e[5mC]*eA)
hGRN mRNA FC [4]: 1.0 FC

CO-6428: ASO based on parent ASOs CO-4363 and CO-4364 (eG*eG*eG*eA*e[5mC]*eT*eT*eG*eG*eG*eA*eG*eT*eG*eG*eT*eG*eA*e[5mC]*eT*eG*eA*eA*e[5mC]*e[5mC]*eT)
30 nM FC (GRN mRNA) [5]: 1.1 FC
60 nM FC (GRN mRNA) [5]: 1.4 FC
120 nM FC (GRN mRNA) [5]: 1.0 FC

CO-4592: ASO designed to target intergenic enhancers (eRNA) (antisense eG*eG*eT*e[5mC]*eA*e[5mC]*eA*eG*eA*eT*eT*eG*e[5mC]*eA*e[5mC]*eT*e[5mC]*eT*e[5mC]*e[5mC])
hGRN mRNA FC [2]: 1.1 FC

CO-4616: ASO designed to target intergenic enhancers (eRNA) (antisense eA*eA*eG*eA*eA*eG*eG*e[5mC]*e[5mC]*eA*eA*eG*e[5mC]*eT*eG*eG*eT*eA*e[5mC]*e[5mC])
hGRN mRNA FC [2]: 1.2 FC

CO-4354: LNA/PS modified ASO based on CO-3423 (antisense eG*eG*eA*l[5mC]*eT*lT*eG*lG*eG*lA*eG*lT*eG*lG*eT*lG*eA*l[5mC]*eT*eG)
30 nM FC (GRN mRNA) [7]: 1.6 FC
60 nM FC (GRN mRNA) [7]: 1.9 FC
120 nM FC (GRN mRNA) [7]: 1.9 FC

CO-4631: ASO designed to target intergenic enhancers (eRNA) (antisense eA*e[5mC]*e[5mC]*eA*e[5mC]*eT*e[5mC]*eT*eG*e[5mC]*eA*eG*eT*eT*eG*eT*eA*eT*eG*eG)
hit identification (GRN mRNA dose escalation) (48 hours): initial hits
hGRN mRNA FC [2]: 1.1 FC
3.75 nM FC (GRN mRNA) [3]: 1.1 FC
7.5 nM FC (GRN mRNA) [3]: 1.1 FC
15 nM FC (GRN mRNA) [3]: 1.2 FC
30 nM FC (GRN mRNA) [3]: 1.1 FC
60 nM FC (GRN mRNA) [3]: 1.1 FC
120 nM FC (GRN mRNA) [3]: 1.3 FC

CO-6418: ASO based on parent ASOs CO-4363 and CO-4364 (eG*eG*eA*e[5mC]*eT*lT*eG*eG*eG*eA*lG*eT*eG*eG*eT*lG*eA*e[5mC]*eT*eG*eA)
30 nM FC (GRN mRNA) [5]: 1.6 FC
60 nM FC (GRN mRNA) [5]: 1.6 FC
120 nM FC (GRN mRNA) [5]: 1.9 FC

CO-6407: ASO based on parent ASO CO-3462 (antisense TAGGAGAATCGCTTTGGGAG; 2'-MOE, 5-methylC, mixed PO/PS; listed as RNA; modified_base 1..3: mod_base = OTHER; note = Phosphorothioate linkage; modified_base 6..15: mod_base = OTHER; modified_base 1..9: mod_base = OTHER; modified_base 18..20: mod_bas)
30 nM FC (GRN mRNA) [1]: 1.1 FC
60 nM FC (GRN mRNA) [1]: 1.2 FC
120 nM FC (GRN mRNA) [1]: 1.6 FC

CO-4626: ASO designed to target intergenic enhancers (eRNA) (antisense e[5mC]*e[5mC]*eT*e[5mC]*eA*eT*eG*eT*eA*eT*eG*eT*eA*eA*eT*eT*eG*e[5mC]*e[5mC]*e[5mC])
hGRN mRNA FC [2]: 1.0 FC

CO-4607: ASO designed to target intergenic enhancers (eRNA) (antisense eA*eA*eG*eA*eA*eA*eT*eA*eG*eA*eT*eT*eA*e[5mC]*e[5mC]*e[5mC]*e[5mC]*eG*eT*eT)
hGRN mRNA FC [2]: 1.1 FC

CO-4357: LNA/PS modified ASO based on CO-3423 (antisense eG*eG*eA*e[5mC]*lT*eT*eG*eG*lG*eA*eG*eT*lG*eG*eT*eG*lA*e[5mC]*eT*eG)
30 nM FC (GRN mRNA) [7]: 1.5 FC
60 nM FC (GRN mRNA) [7]: 1.7 FC
120 nM FC (GRN mRNA) [7]: 2.4 FC

CO-4591: ASO designed to target intergenic enhancers (eRNA) (antisense eG*eA*eT*eA*eG*eT*eT*eG*eG*e[5mC]*e[5mC]*e[5mC]*e[5mC]*eT*e[5mC]*eG*eG*eA*eG*eT)
hGRN mRNA FC [2]: 1.1 FC

CO-5267: CO-3423 with additional LNA tiling and PO bond modifications (antisense GGACTTGGGAGTGGTGACTG; 2'-MOE, mixed PS/PO, 5-methylcytosine; listed as RNA; modified_base 1..9: mod_base = OTHER; note = Phosphorothioate linkage; modified_base 17..20: mod_base = OTHER; modified_base 1..20: mod_base = OTHER; note = 2'-O-(2-methoxyethyl) ribonucleotide; modified_base 4)
7.5 nM FC (GRN mRNA) [8]: 1.0 FC
13 nM FC (GRN mRNA) (Table 7, 13 nM, normalized to CO-1589 (sNTC1)): 1.0 FC
30 nM FC (GRN mRNA) [8]: 1.2 FC
60 nM FC (GRN mRNA) [8]: 1.7 FC
120 nM FC (GRN mRNA) [8]: 1.9 FC
150 nM FC (GRN mRNA) (Table 7, 150 nM, normalized to CO-1589 (sNTC1)): 2.3 FC

CO-6426: ASO based on parent ASOs CO-4363 and CO-4364 (eG*eG*eA*e[5mC]*eT*eT*eG*eG*eG*eA*eG*eT*eG*eG*eT*eG*eA*e[5mC]*eT*eG*eA*eA*e[5mC]*e[5mC])
30 nM FC (GRN mRNA) [5]: 0.8 FC
60 nM FC (GRN mRNA) [5]: 1.5 FC
120 nM FC (GRN mRNA) [5]: 1.3 FC

CO-6394: ASO based on parent ASO CO-3462 (antisense eT*eA*lG*eG*eA*lG*eA*eA*lT*e[5mC]*eG*l[5mC]*eT*eT*lT*eG*eG*lG*eA*eG)
30 nM FC (GRN mRNA) [1]: 1.1 FC
60 nM FC (GRN mRNA) [1]: 0.9 FC
120 nM FC (GRN mRNA) [1]: 1.3 FC
